Data taken from ChEMBL document CHEMBL5370659 (J Med Chem, 2023).
Calls of active or inactive are those of the source. No cut-off for these calls is given here.

Tests used:
[1] = Toxicity in C57BL/6N mouse subcutaneously transplanted with mouse MC-38 cells assessed as general toxic effects at 50 mg/kg, po bid measured on day 20; format: organism-based; settings: in vivo, sc, 480 h, time 20 day
[2] = MRT (0 to last) in Sprague-Dawley rat at 10 mg/kg, iv measured upto 1440 mins by LC-MS/MS analysis; format: ADME, organism-based; settings: in vivo
[3] = AUMCExtra in Sprague-Dawley rat at 50 mg/kg, po measured upto 1440 mins by LC-MS/MS analysis; format: ADME, organism-based; settings: in vivo, 24 h
Mus musculus [4] = experiment: Effect on total duration of immobility in C57BL/6N mouse at 10 mg/kg, po treated for 14 days by tail suspension test; format: functional, organism-based; settings: time 14.0 day
[5] = Volume of distribution at steady state in Sprague-Dawley rat at 10 mg/kg, iv measured upto 1440 mins by LC-MS/MS analysis; format: ADME, organism-based; settings: in vivo, read-out: Vdss
[6] = Drug uptake in Sprague-Dawley rat brain at 20 mg/kg, po measured at 0.5 hrs by LC-MS/MS analysis; format: ADME, organism-based; settings: in vivo, BLD = below limit of detection
[7] = Tmax in CD-1 (ICR) mouse at 50 mg/kg, po measured upto 1440 mins by LC-MS/MS analysis; format: ADME, organism-based; settings: in vivo
[8] = target: Large neutral amino acids transporter small subunit 1 (Homo sapiens, UniProt Q01650); experiment: Inhibition of human LAT1 transfected in MDCK-II cells co-transfected with 4F2HC or GFP using [3H]-leucine as probe substrate at 20 uM incubated for 10 mins by scintillation counting analysis; format: cell-based
Sequence of Large neutral amino acids transporter small subunit 1 (Q01650 whole entry): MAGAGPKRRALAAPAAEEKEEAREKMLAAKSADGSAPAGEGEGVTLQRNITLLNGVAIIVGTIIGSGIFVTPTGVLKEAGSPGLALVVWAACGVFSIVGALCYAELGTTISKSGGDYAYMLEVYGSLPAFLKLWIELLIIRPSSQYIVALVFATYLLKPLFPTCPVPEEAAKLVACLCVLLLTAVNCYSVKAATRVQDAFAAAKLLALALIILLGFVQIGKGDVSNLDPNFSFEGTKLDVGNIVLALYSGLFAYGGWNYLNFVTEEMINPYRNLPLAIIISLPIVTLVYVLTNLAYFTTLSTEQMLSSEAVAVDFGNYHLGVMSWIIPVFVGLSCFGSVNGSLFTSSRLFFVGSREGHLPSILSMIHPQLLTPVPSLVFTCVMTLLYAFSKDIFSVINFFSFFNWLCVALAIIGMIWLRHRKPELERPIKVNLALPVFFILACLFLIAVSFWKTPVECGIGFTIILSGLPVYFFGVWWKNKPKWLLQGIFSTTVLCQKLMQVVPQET

[9] = MRT (0 to infinitive) in Sprague-Dawley rat at 10 mg/kg, iv measured upto 1440 mins by LC-MS/MS analysis; format: ADME, organism-based; settings: in vivo
Mus musculus [10] = experiment: Effect on time spent in central zone of C57BL/6N mouse at 20 mg/kg, po treated for 14 days by locomotor activity test; format: functional, organism-based; settings: time 14.0 day
[11] = AUCExtra in Sprague-Dawley rat at 20 mg/kg, po measured upto 1440 mins by LC-MS/MS analysis; format: ADME, organism-based; settings: in vivo, 24 h
[12] = Apparent permeability across basal to apical side in human Caco-2 cells at pH 6.5/7.4 measured at 5 uM by LC-MS/MS analysis; format: ADME, cell-based; settings: Caco-2, pH 6.5
Mus musculus [13] = experiment: Effect on total travelled distance of C57BL/6N mouse at 20 mg/kg, po treated for 14 days by locomotor activity test; format: functional, organism-based; settings: time 14.0 day
[14] = Drug uptake in Sprague-Dawley rat lung at 20 mg/kg, po measured at 2 hrs by LC-MS/MS analysis; format: ADME, organism-based; settings: read-out: Drug uptake
[15] = AUC (0 to infinitive) in Sprague-Dawley rat at 50 mg/kg, po measured upto 1440 mins by LC-MS/MS analysis; format: ADME, organism-based; design: dose 50 mg/kg, time < 1440 min, route po; settings: in vivo
[16] = target: T1, Tryptophan 5-hydroxylase 2 (Homo sapiens, UniProt Q8IWU9); experiment: Inhibition of recombinant MBP-tagged full length human THP2 using L-Trp as substrate assessed as formation of 5-HTP by measuring fluorescent property
T1 sequence (Q8IWU9 whole entry): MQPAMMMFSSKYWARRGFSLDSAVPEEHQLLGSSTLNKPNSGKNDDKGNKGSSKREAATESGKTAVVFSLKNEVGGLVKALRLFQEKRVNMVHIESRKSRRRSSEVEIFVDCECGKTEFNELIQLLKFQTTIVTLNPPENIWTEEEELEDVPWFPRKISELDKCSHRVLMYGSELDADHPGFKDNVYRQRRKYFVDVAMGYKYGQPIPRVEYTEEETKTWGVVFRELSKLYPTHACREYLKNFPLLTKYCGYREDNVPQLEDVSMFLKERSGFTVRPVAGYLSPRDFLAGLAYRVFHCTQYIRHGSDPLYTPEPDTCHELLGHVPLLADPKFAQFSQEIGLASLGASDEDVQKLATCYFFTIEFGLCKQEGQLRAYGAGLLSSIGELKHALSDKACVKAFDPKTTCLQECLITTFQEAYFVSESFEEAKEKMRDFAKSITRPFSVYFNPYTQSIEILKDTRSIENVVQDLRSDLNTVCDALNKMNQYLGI

MC-38 = experiment: Antitumor activity against mouse MC-38 cells subcutaneously transplanted in C57BL/6N mouse assessed as reduction in absolute tumor volume at 50 mg/kg, po bid measured on day 20 relative to control; format: functional; settings: MC-38, 480 h, route sc, time 20 day
[17] = AUCExtra in Sprague-Dawley rat at 10 mg/kg, iv measured upto 1440 mins by LC-MS/MS analysis; format: ADME, organism-based; settings: in vivo, 24 h
[18] = Plasma concentration in CD-1 (ICR) mouse at 50 mg/kg measured 0.5 hrs by LC-MS/MS analysis; format: ADME, organism-based
[19] = Toxicity in C57BL/6N mouse subcutaneously transplanted with mouse MC-38 cells assessed as body weight change at 50 mg/kg, po bid measured on day 20; format: organism-based; settings: in vivo, sc, 480 h, time 20 day
[20] = AUC (0 to infinitive) in Sprague-Dawley rat at 10 mg/kg, iv measured upto 1440 mins by LC-MS/MS analysis; format: ADME, organism-based; design: dose 10 mg/kg, time < 1440 min, route iv; settings: in vivo
[21] = Brain homogenate binding in mouse; format: ADME, tissue-based
[22] = Inhibition of BCRP in human Caco-2 cells seeded in polyethylene membranes assessed as permeation in presence or absence of E3S measured for 2 hrs by LC-MS/MS analysis based transporter assay; format: cell-based
[23] = Metabolic stability in rat hepatocytes assessed as intrinsic clearance; format: ADME, cell-based, Hepatocyte; settings: read-out: CLH
[24] = Drug uptake in Sprague-Dawley rat brain at 50 mg/kg, po measured at 0.5 hrs by LC-MS/MS analysis; format: ADME, organism-based; settings: read-out: Drug uptake
[25] = Oral bioavailability in CD-1 (ICR) mouse at 50 mg/kg measured upto 1440 mins by LC-MS/MS analysis; format: ADME, organism-based; settings: in vivo
[26] = MRT (0 to last) in CD-1 (ICR) mouse at 50 mg/kg, po measured upto 1440 mins by LC-MS/MS analysis; format: ADME, organism-based; settings: in vivo
[27] = MRT (0 to last) in Sprague-Dawley rat at 20 mg/kg, po measured upto 1440 mins by LC-MS/MS analysis; format: ADME, organism-based; settings: in vivo
[28] = Plasma concentration in Sprague-Dawley rat at 50 mg/kg, po measured at 0.5 hrs by LC-MS/MS analysis; format: ADME, organism-based
[29] = Tmax in Sprague-Dawley rat at 50 mg/kg, po measured upto 1440 mins by LC-MS/MS analysis; format: ADME, organism-based; settings: in vivo
Mus musculus [30] = experiment: Effect on hedonic component behavior in C57BL/6N mouse at 10 mg/kg, po treated for 14 days by sucrose preference test; format: functional, organism-based; settings: time 14.0 day
[31] = Tmax in Sprague-Dawley rat at 20 mg/kg, po measured upto 1440 mins by LC-MS/MS analysis; format: ADME, organism-based; settings: in vivo
[32] = AUCExtra in Sprague-Dawley rat at 50 mg/kg, po measured upto 1440 mins by LC-MS/MS analysis; format: ADME, organism-based; settings: in vivo, 24 h
[33] = Mutagenicity in Salmonella typhimurium TA98 in presence or absence of rat liver S9 fraction by Ames test; format: toxicity; settings: salmonella enterica subsp. enterica serovar typhimurium
[34] = Clearance in Sprague-Dawley rat at 10 mg/kg, iv measured upto 1440 mins by LC-MS/MS analysis; format: ADME, organism-based; settings: in vivo

CCn1c(=O)[nH]c(=O)c2c1nc(Cc1cn3cc(C)sc3n1)n2CC1COC1
Activity [1]: Non-Toxic | MRT last at 24 h [2]: 36.6 min | AUMC [3]: 4.6% | Activity (Mus musculus [4]): inactive | Vd [5]: 1.4 L/kg | Drug uptake [6]: Bld | Tmax [7]: 20 min | inhibition (INH) [8]: Not Active | MRT inf [9]: 42 min | Activity (Mus musculus [10]): inactive | %AUCextra [11]: 0.84% | Papp B→A at 5 µM [12]: 23 ×10⁻⁶ cm/s | Activity (Mus musculus [13]): inactive | concentration at 2 h [14]: 76 ng/g | AUC(0-inf) [15]: 8220 ng·h/mL | IC50 [16]: 16 nM | inhibition in vivo at 50 mg/kg (MC-38): 35% | %AUCextra [17]: 0.46% | concentration at 0.5 h [18]: 7390 ng/mL | Activity [19]: Non-Toxic | AUC(0-inf) [20]: 5030 ng·h/mL | Activity [21]: 72% | IC50 [22]: > 100000 nM | CLint scaled [23]: < 17 mL/min/kg | concentration at 0.5 h [24]: 43 ng/g | bioavailability [25]: 41.3% | MRT last at 24 h [26]: 94.8 min | MRT last at 24 h [27]: 175 min | concentration at 0.5 h [28]: 5950 ng/mL | Tmax [29]: 49.8 min | Activity (Mus musculus [30]): inactive | Tmax [31]: 25.2 min | %AUCextra [32]: 0.44% | Activity [33]: Non-Toxic | clearance [34]: 33.2 mL/min/kg
